Converted amounts (≈) assume the structure as drawn. “Also recorded” adds a separate entry of the source. Where two headings read alike, the source gives them in different places.
How the values were obtained:
[1] = Tissue distribution, mouse; format: in vivo
Protocol: Referring to Tables 8A-C below, an in vivo summary of EP-0035985 IV at 1 mg/kg (8A), PO 10 mg/kg (8B), and a tissue distribution, mouse (8C) is shown below.

pS129 α-synuclein = pS129 α-synuclein in human iPSC derived neurons; format: cell-based; details: FIG. 21
PINK1 = target: T1, PINK1 (Homo sapiens, UniProt Q9BXM7); assay: pS65 Ubiquitin ELISA assay (HeLa-MKYP WT or PINK1 KO); format: cell-based; details: PINK1wt vs PINK1ko cells, FIG. 17A
T1 construct: for each cell type tested (HeLa-MKYP WT or PINK1^KO); endogenous in cells; host or cells: HeLa-MKYP (WT) / HeLa cells
Protocol: HeLa-MKYP cells were plated at 10,000 cells/well in 96-well plates along with compounds at various concentrations. Following 16 hours of incubation, cells were treated with 1 μM FCCP/oligomycin (F/O) along with compounds at various doses for 2-3 hours. Appropriate controls were included on each plate to obtain a maximum signal from treatment with 10 μM F/O or, and a minimum signal from cells treated with no F/O with DMSO for each cell type tested (HeLa-MKYP WT or PINK1^KO). At the desired timepoint, media was removed and cells were frozen prior to lysis. Cells lysates were denatured by boiling, prior to analysis by a custom ELISA assay using commercially available antibodies (using anti-phospho-ubiquitin as a capturing antibody, and anti-total ubiquitin as a detection antibody). Purified pS65 ubiquitin was used to generate a standard curve and determine timing for ELISA reaction development.

GDF15 = assay: Cisplatin mouse model of mitochondrial dysfunction (GDF15 qPCR, kidney); format: in vivo, mice; details: oral dosing; i.p. cisplatin; FIG. 34
Description: Cisplatin is a chemotherapeutic agent reported in the literature to induce mitochondrial damage (see: Yang, Z., et al. “Cisplatin Preferentially Binds Mitochondrial DNA and Voltage-Dependent Anion Channel Protein in the Mitochondrial Membrane of Head and Neck Squamous Cell Carcinoma: Possible Role in Apoptosis.” Clinical Cancer Research 12, no. 19 (2006), 5817-5825). Growth and Differentiation Factor 15 (GDF15) is an established biomarker of mitochondrial disease and certain neurodegenerative diseases (see: Montero, R, et al. “GDF-15 Is Elevated in Children with Mitochondrial Diseases and Is Induced by Mitochondrial Dysfunction.” PLOS ONE 11, no. 2 (2016); Nohara, S, et al. “GDF-15, a mitochondrial disease biomarker, is associated with the severity of multiple sclerosis”, Journal of Neurological Sciences, Vol 405 (2019)). Briefly, mice approximately 10 weeks in age were challenged with a single intraperitoneal dose of cisplatin (10 mg/kg), then treated daily via oral gavage with either compound 35985 at various doses or vehicle control. On day 7, the animals were sacrificed. Kidneys were removed and homogenized. Following published methods, qPCR was performed on the kidney samples to determine expression levels of GDF15.

dOTC = assay: Ornithine carbamoyltransferase (dOTC) assay; format: cell-based
Description: The expression of a deletion mutant of dOTC yields Triton X-100 insoluble protein aggregates in the mitochondrial matrix. This misfolded protein expression is capable of recruiting PINK1/Parkin to mitochondria without depolarizing the inner mitochondrial membrane. Thus, without wishing to be bound by theory, it may represent a more physiological mechanism of PINK1 stabilization.
Here, HeLa cells stably expressing YFP parkin, containing doxycycline inducible expression of dOTC, were obtained. The cells were seeded at 20000 cells/well plus doxycycline (1 μg/mL) plus MTK on a 96-well plate. On Day 3, the cells were fixed and permeabilized and bound with OTC antibody. DAPI and cell mask were added. There was no wash off of dox. The results were imaged at 40×, non-confocal. 85-600 cells were analyzed per well. Each condition had 1-3 wells.

Solubility in 1× PBS = format: physicochemical
[2] = three days of treatment with DOX and 50 μM

T1 sequence (Q9BXM7 78-581): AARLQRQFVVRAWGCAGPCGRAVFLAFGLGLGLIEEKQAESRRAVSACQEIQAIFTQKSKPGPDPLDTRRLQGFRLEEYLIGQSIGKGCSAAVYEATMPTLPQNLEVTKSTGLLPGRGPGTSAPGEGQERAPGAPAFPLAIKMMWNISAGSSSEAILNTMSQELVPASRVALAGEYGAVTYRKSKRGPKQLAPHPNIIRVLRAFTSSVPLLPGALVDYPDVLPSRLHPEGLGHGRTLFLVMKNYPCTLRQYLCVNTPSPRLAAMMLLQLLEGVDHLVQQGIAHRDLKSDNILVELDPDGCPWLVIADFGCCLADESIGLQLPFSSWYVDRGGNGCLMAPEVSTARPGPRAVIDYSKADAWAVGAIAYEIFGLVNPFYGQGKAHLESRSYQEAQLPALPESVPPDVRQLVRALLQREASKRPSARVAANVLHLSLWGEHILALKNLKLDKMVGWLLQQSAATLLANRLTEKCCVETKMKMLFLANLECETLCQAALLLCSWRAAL

FC(F)(F)c1cc2c(NC3CCCc4ccccc43)ncnc2[nH]1 (stereo not shown) [Compound 15]
concentration at 0.5 h ([1]; brain, dose 10 mg/kg, read-out: Brain 0.5 h): 526 ng/g | concentration at 1 h ([1]; brain, dose 10 mg/kg, read-out: Brain 1 h): 737 ng/g | concentration at 2 h ([1]; brain, dose 10 mg/kg, read-out: Brain 2 h): 435 ng/g | concentration at 0.5 h ([1]; brain, dose 50 mg/kg, read-out: Brain 0.5 h): 3340 ng/g | concentration at 1 h ([1]; brain, dose 50 mg/kg, read-out: Brain 1 h): 6370 ng/g | concentration at 2 h ([1]; brain, dose 50 mg/kg, read-out: Brain 2 h): 3980 ng/g | concentration at 0.5 h ([1]; kidney, dose 10 mg/kg, read-out: Kidney 0.5): 1050 ng/g | concentration at 1 h ([1]; kidney, dose 10 mg/kg, read-out: Kidney 1): 1290 ng/g | concentration at 2 h ([1]; kidney, dose 10 mg/kg, read-out: Kidney 2): 893 ng/g | concentration at 0.5 h ([1]; kidney, dose 50 mg/kg, read-out: Kidney 0.5): 6430 ng/g | concentration at 1 h ([1]; kidney, dose 50 mg/kg, read-out: Kidney 1): 11500 ng/g | concentration at 2 h ([1]; kidney, dose 50 mg/kg, read-out: Kidney 2): 7480 ng/g | concentration at 0.5 h ([1]; plasma, dose 10 mg/kg, read-out: Plasma 0.5 h): 372 ng/g | concentration at 1 h ([1]; plasma, dose 10 mg/kg, read-out: Plasma 1 h): 276 ng/g | concentration at 2 h ([1]; plasma, dose 10 mg/kg, read-out: Plasma 2 h): 146 ng/g | concentration at 0.5 h ([1]; plasma, dose 50 mg/kg, read-out: Plasma 0.5 h): 1900 ng/g | concentration at 1 h ([1]; plasma, dose 50 mg/kg, read-out: Plasma 1 h): 2080 ng/g | concentration at 2 h ([1]; plasma, dose 50 mg/kg, read-out: Plasma 2 h): 1420 ng/g | pS129 α-synuclein (pS129 α-synuclein): significantly reduces pS129 α-synuclein | pS65 Ub (PINK1 substrate phosphorylation) (PINK1): significant increase in pS65 Ub in PINK1^wt cells but not in PINK1^ko cell lines | expression of mitochondrial disease marker GDF15 (GDF15): reduces expression of mitochondrial disease marker GDF15 | dOTC proteins / delta OTC aggregates (dOTC; induced by doxycycline, FIG. 16, FIG. 20, listed as EP-0035985): able to reduce the accumulated dOTC proteins; also recorded: reduces delta OTC aggregates from mitochondria | OTC signal (dOTC; [2]): very effective at reducing OTC signal | cell counts (dOTC; [2]): cell counts were lower | solubility (Solubility in 1× PBS): 1 µM (≈ 0.332 µg/mL)
